# According to patent US10987357B2, “Aerosolized fluoroquinolones and uses thereof” (Horizon Orphan, LLC, priority 2005, dated 2021):
# Where “and” joins values, the source holds several entries; their conditions need not be identical. Identical values can stand only once. Counter-ions that a name gives are not always drawn. Like-named read-outs stand apart in the source and are kept apart here.
# B1: reduced rhTrx: stable reduced form of recombinant human thioredoxin (protein, UniProt P10599 2-105, looked up)
# Thioredoxin: VKQIESKTAFQEALDAAGDKLVVVDFSATWCGPCKMIKPFFHSLSEKYSNVIFLEVDVDDCQDVASECEVKCMPTFQFFKKGQKVGEFSGANKEKLEATINELV
# modifications: reduced form
# Experiments:
# [1] = system: elastase; conditions: cited from earlier work
# [2] = in vivo
# Description: In the second test, the tolerability and taste of a small aerosol sample from a 0.5 ml aliquot of the test formulation was determined in a single healthy human volunteer, following nebulization in a PARI eFlow nebulizer (Table 12).
# The tolerability and taste of the drug during a very brief administration period and for a period of 10 minutes post administration were monitored. Tolerability parameters were of the following types: (i) cough, cough sensation, or sneezing (ii) irritation, burning or tightness of throat, (ii) irritation or runniness in nasal passages or eyes, (iii) irritation, burning or tightness of the lungs or shortness of breadth, and (iv) dizziness, headache, nausea or other systemic effects.
# [3] = system: methicillin resistant Staphylococcus aureus (MRSA); conditions: cited from earlier work; for MRSA MIC90: Table 6
# [4] = system: Streptococcus pneumonia (Sp); conditions: Table 6; cited from earlier work
# [5] = system: Pseudomonas aeruginosa (Pa); conditions: cited from earlier work; for Pa MIC90: Table 6
# [6] = system: P. aeruginosa strain PAM 1723; experiment: Mouse lung infection efficacy model; conditions: Pseudomonas aeruginosa, PAM1723, in Mus musculus
# Description: The inoculum is adjusted to ca. 5×10^6 CFU/ml by correlation of absorbance at 600 nm with predetermined plate counts. […] On day 5, mice are infected by an intratracheal instillation of 0.05 ml of inoculum while under isoflurane anesthesia (5% isoflurane in oxygen running at 4 L/min). […] Mice are sacrificed 1 and 4 hours after treatment, their lungs removed, homogenized and plated to determine colony counts.
# [7] = in vivo; cited from earlier work
# [8] = 750 mg oral dose; cited from earlier work
# [9] = system: MSSA; conditions: Table 6; cited from earlier work
# [10] = physchem; conditions: for Initial Solution pH / Initial Solution Appearance: 10 mg/mL in sterile water; for Initial Solution Appearance: room temperature; for solubility at 10 min: aqueous buffer, thermodynamic from solid; for After pH Adjustment Appearance / After pH Adjustment pH / pH of final solution: 10 mg/mL; for After pH Adjustment Appearance / After pH Adjustment pH: titrated with 1N HCl
# Description: A 2 to 20 mg sample of each antibiotic was weighed into sterile plastic tubes and brought up with a volume of sterile water to make a 10 mg/mL solution or suspension of the antibiotic. Samples were incubated for approximately 10 minutes at room temperature with occasional mixing, prior to further handling.
# The insoluble solutions were titrated with 1N HCl to the point of visible solubility, and the pH of the solubilized solution determined.
# After the pH adjustment, and following a further 10 minute incubation period with occasional mixing, the final appearance of the solutions was determined, just prior to the aerosol tolerability and taste test.
# [11] = Rat pharmacokinetic model (IV vs microspray aerosol, intratracheal); format: in vivo, rats; conditions: for AUC: epithelial lining fluid (ELF)
# Description: […] Blood samples are taken at various times over 3 hours to determine the plasma pharmacokinetic parameters. […] The plasma and tissue concentrations are determined by an HPLC method and the data are then fit using WinNonlin.
# [12] = Dissolution rate studies; conditions: 37° C.
# [13] = cited from earlier work
# [14] = Gemifloxacin formulations with organic bases: pH and osmolality; format: physicochemical; conditions: before pH adjustment
# Source text: (§1) It was filtered through a 0.45 micron filter.
# as §1, §1, §1, §1
# [15] = in vivo; cited from earlier work; remark: listed apart in the source
# [16] = 1 h, read-out: DeltaLOG CPU 1 hr, route IT, dose 25 mg/kg, 1 hr post-drug administration
# [17] = 4 h, read-out: DeltaLOG CPU 4 hr, route IT, dose 25 mg/kg, 4 hr post-drug administration
# [18] = ip, 1 h, read-out: DeltaLOG CPU 1 hr, route IP, dose 25 mg/kg, 1 hr post-drug administration
# [19] = ip, 4 h, read-out: DeltaLOG CPU 4 hr, route IP, dose 25 mg/kg, 4 hr post-drug administration
# [20] = rat, inhaled or intranasal, IT, 10 mg/kg
# [21] = 2-10 minutes, 500 ml pH 7.4 Tris buffer, paddles 100 rpm
# [22] = 10-30 minutes, pH 7.4 Tris buffer
molecule,measurement,setting,value
"O=C(O)CCCC[C@@H](S)CCS (racemic) [DHLA, dihydrolipoic acid]",effect on elastase activity after treatment of CF sputum,[1],did not increase elastase activity
O=C(O)c1cn(C2CC2)c2cc(N3CCNCC3)c(F)cc2c1=O [Ciprofloxacin],Aerosol Tolerability and Taste,[2],"very strong, bitter unpleasant"
same,MRSA MIC90,[3],64 µg/mL
same,SP MIC90,[4],2 µg/mL
same,Pa MIC90,[5],8 µg/mL
same,rank of potency against Pa,[5],most potent
same,log reduction at 25 mg/kg,[6]; [16],2.32
same,log reduction at 25 mg/kg,[6]; [17],1.45
same,log reduction at 25 mg/kg,[6]; [18],1.59
same,log reduction at 25 mg/kg,[6]; [19],0.41
same,penetration into lung tissues,[7],much less efficiently than levofloxacin
same,"peak concentration, serum",[8],~4.2 µg/mL
same,"time of peak drug concentration, serum",[8],1.5 h
same,MSSA MIC90,[9],1 µg/mL
CO/N=C1\CN(c2nc3c(cc2F)c(=O)c(C(=O)O)cn3C2CC2)CC1CN (stereo not drawn) [Gemifloxacin],Initial Solution pH,[10],4.7
same,Initial Solution Appearance,[10],"colorless, transparent, no"
same,solubility at 10 min,[10],> 10000 µg/mL
same,Aerosol Tolerability and Taste,[2],"strong unpleasant bitter taste, strong"
same,MRSA MIC90,[3],2 µg/mL
same,rank of potency against MRSA,[3],most potent
same,SP MIC90,[4],0.06 µg/mL
same,"F, % from Lung vs. IV","[11]; IT, 10 mg/kg",86%
same,AUC,[11]; [20],536000 ng·h/mL
same,AUC,"[11]; rat, iv, 8 mg/kg",3720 ng·h/mL
same,half-life,"[11]; rat, serum, iv, 8 mg/kg, read-out: Serum t1/2 (converted)",1.04 h
same,Pa MIC90,[5],8 µg/mL
same,rank of potency against Pa,[5],most potent
same,log reduction at 25 mg/kg,[6]; [16],3.2
same,log reduction at 25 mg/kg,[6]; [17],2.28
same,MSSA MIC90,[9],0.06 µg/mL
C[C@H]1COc2c(N3CCN(C)CC3)c(F)cc3c(=O)c(C(=O)O)cn1c23.O=C(O)c1cc2ccccc2c(Cc2c(O)c(C(=O)O)cc3ccccc23)c1O [levofloxacin pamoate],dissolution rate,[12]; [21],approximately 0.146 mg/min
same,dissolution rate,"[12]; 10-60 minutes, pH 7.4 Tris buffer",0.0331 mg/min
C[C@@H]1CN(c2c(F)c(F)c3c(=O)c(C(=O)O)cn(C4CC4)c3c2F)C[C@H](C)N1 [Orbifloxacin],Initial Solution Appearance,[10],"white, cloudy, visible"
same,After pH Adjustment Appearance,[10],"colorless, transparent, no"
same,After pH Adjustment pH,[10],1.7
same,solubility at 10 min,[10],> 10000 µg/mL
same,pH of final solution,[10],1.7
same,Aerosol Tolerability and Taste,[2],"very acidic, strong bitter unpleasant"
same,cough on aerosol exposure,[2],associated with cough
same,SP MIC90,[4],2 µg/mL
same,Pa MIC90,[5],>32 µg/mL
same,MSSA MIC90,[9],2 µg/mL
DNase,increase of sol elastase activity after treatment of CF sputum,[1],190%
C[C@H]1COc2c(N3CCN(C)CC3)c(F)cc3c(=O)c(C(=O)O)cn1c23.O=C(O)c1ccc2ccccc2c1O [levofloxacin xinafoate],dissolution rate,[12]; [21],approximately 1.24 mg/min
same,dissolution rate,[12]; [22],0.28 mg/min
CCC(=O)O[C@H]1[C@H](O[C@@H]2[C@@H](C)[C@H](O[C@H]3C[C@@](C)(OC)[C@@H](O)[C@H](C)O3)[C@@H](C)C(=O)O[C@H](CC)[C@@](C)(O)[C@H](O)[C@@H](C)C(=O)[C@H](C)C[C@@]2(C)O)O[C@H](C)C[C@@H]1N(C)C [erythromycin estolate],solubility as fraction of that of the free base,[13],approximately 1/12
COc1c(N2CCNC(C)C2)c(F)cc2c(=O)c(C(=O)O)cn(C3CC3)c12 (stereo not drawn) [Gatifloxacin],Initial Solution pH,[10],7.0
same,Initial Solution Appearance,[10],"white, cloudy, visible"
same,After pH Adjustment Appearance,[10],"slight yellow color,"
same,After pH Adjustment pH,[10],3.0
same,solubility at 10 min,[10],> 10000 µg/mL
same,pH of final solution,[10],3.0
same,Aerosol Tolerability and Taste,[2],"moderate bitter unpleasant taste,"
same,cough on aerosol exposure,[2],associated with cough
same,MRSA MIC90,[3],4 µg/mL
same,SP MIC90,[4],0.5 µg/mL
same,"F, % from Lung vs. IV","[11]; IT, 10 mg/kg",100%
same,AUC,[11]; [20],54700 ng·h/mL
same,AUC,"[11]; rat, iv, 10 mg/kg",5320 ng·h/mL
same,Pa MIC90,[5],16 µg/mL
same,rank of potency against Pa,[5],most potent
same,log reduction at 25 mg/kg,[6]; [16],1.48
same,log reduction at 25 mg/kg,[6]; [17],2.11
same,log reduction at 25 mg/kg,[6]; [18],0.34
same,log reduction at 25 mg/kg,[6]; [19],0.02
same,MSSA MIC90,[9],0.125 µg/mL
CO/N=C1\CN(c2nc3c(cc2F)c(=O)c(C(=O)O)cn3C2CC2)CC1CN (stereo not drawn) [Gemifloxacin mesylate],pH of filtered solution in water,[14],4.28 and 4.21 and 4.40 and 4.32 and 4.20
CC1COc2c(N3CCN(C)CC3)c(F)cc3c(=O)c(C(=O)O)cn1c23 (racemic) [Ofloxacin],Aerosol Tolerability and Taste,[2],"bitter chemical taste, mild cough sensation"
same,distribution into sputum,[15],79%
C[C@@H]1CN(c2c(F)c(N)c3c(=O)c(C(=O)O)cn(C4CC4)c3c2F)C[C@H](C)N1 [Sparfloxacin],Initial Solution pH,[10],5.0
same,Initial Solution Appearance,[10],"bright yellow, turbid, visible"
same,After pH Adjustment Appearance,[10],"bright yellow, densely"
same,After pH Adjustment pH,[10],1.5
same,pH of final solution,[10],1.5
same,solubility on titration with 1N HCl,[10]; pH 1.5,solubility was not reached by pH 1.5
same,MRSA MIC90,[3],16 µg/mL
same,SP MIC90,[4],0.5 µg/mL
same,Pa MIC90,[5],32 µg/mL
same,log reduction at 25 mg/kg,[6]; [16],1.56
same,log reduction at 25 mg/kg,[6]; [17],0.81
same,log reduction at 25 mg/kg,[6]; [18],0.85
same,log reduction at 25 mg/kg,[6]; [19],-0.09
same,MSSA MIC90,[9],0.125 µg/mL
CCn1cc(C(=O)O)c(=O)c2cc(F)c(N3CCNC(C)C3)c(F)c21 (stereo not drawn) [Lomefloxacin],Initial Solution pH,[10],4.2
same,Initial Solution Appearance,[10],"cloudy, visible sediment"
same,After pH Adjustment Appearance,[10],"transparent, no sediment,"
same,solubility at 10 min,[10],> 10000 µg/mL
same,pH of final solution,[10],4.2
same,Aerosol Tolerability and Taste,[2],"chemical taste, somewhat bitter,"
same,MRSA MIC90,[3],>32 µg/mL
same,SP MIC90,[4],16 µg/mL
same,Pa MIC90,[5],32 µg/mL
same,MSSA MIC90,[9],2 µg/mL
CCCCCCCCCCCCCCCCCC(=O)O.C[C@H]1COc2c(N3CCN(C)CC3)c(F)cc3c(=O)c(C(=O)O)cn1c23 [levofloxacin stearate],dissolution rate,[12]; [21],0.499 mg/min
same,dissolution rate,[12]; [22],0.161 mg/min
B1,increase of sol elastase activity after treatment of CF sputum,[1],60%
